Calls of active or inactive are those of the source.
How the values were obtained:
NS3 = NS3 (Hepatitis C virus, UniProt A3EZJ3); test: PubChem AID 2173; design: species or system Hepacivirus hominis
[1] = biological target: T1, Short transient receptor potential channel 4 (Mus musculus, UniProt Q9QUQ5); test: mouse TRPC4 channel activators, dose response, cell-based, HEK293 TRPC4/mu-opioid, Fluo-4 calcium (AID 434937); type: functional
T1 sequence (Q9QUQ5 whole entry): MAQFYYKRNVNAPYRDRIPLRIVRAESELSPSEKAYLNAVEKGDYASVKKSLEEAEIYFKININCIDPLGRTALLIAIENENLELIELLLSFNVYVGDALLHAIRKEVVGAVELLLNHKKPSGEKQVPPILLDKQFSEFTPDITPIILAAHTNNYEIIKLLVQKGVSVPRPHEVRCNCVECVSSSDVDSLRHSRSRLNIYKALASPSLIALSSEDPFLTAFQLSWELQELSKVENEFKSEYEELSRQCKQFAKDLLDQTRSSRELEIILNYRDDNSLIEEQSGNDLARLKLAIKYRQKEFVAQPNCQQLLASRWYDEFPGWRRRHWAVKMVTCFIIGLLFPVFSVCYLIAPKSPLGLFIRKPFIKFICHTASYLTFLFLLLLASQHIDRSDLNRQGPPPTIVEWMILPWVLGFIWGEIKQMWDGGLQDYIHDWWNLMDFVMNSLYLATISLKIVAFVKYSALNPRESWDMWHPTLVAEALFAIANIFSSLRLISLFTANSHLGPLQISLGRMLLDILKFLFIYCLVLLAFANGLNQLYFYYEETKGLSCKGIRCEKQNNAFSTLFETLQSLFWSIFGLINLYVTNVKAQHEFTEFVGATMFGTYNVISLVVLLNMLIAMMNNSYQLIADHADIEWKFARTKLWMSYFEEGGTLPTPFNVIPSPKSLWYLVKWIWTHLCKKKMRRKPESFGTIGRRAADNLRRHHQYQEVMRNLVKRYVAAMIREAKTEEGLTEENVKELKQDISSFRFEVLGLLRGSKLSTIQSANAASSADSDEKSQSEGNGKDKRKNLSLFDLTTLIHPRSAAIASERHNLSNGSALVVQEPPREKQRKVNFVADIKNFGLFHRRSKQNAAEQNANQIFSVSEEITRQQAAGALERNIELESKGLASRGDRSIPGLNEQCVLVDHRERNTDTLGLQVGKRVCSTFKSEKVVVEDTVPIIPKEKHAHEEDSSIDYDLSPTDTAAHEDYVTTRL

[2] = biological target: Lysosomal acid glucosylceramidase (Homo sapiens, UniProt P04062); test: Dose response cell-based high throughput screening assay to identify enhancers of beta-glucosidase activity. [Related pubchem assays: 784 ]; type: functional
Sequence of Lysosomal acid glucosylceramidase (P04062 whole entry): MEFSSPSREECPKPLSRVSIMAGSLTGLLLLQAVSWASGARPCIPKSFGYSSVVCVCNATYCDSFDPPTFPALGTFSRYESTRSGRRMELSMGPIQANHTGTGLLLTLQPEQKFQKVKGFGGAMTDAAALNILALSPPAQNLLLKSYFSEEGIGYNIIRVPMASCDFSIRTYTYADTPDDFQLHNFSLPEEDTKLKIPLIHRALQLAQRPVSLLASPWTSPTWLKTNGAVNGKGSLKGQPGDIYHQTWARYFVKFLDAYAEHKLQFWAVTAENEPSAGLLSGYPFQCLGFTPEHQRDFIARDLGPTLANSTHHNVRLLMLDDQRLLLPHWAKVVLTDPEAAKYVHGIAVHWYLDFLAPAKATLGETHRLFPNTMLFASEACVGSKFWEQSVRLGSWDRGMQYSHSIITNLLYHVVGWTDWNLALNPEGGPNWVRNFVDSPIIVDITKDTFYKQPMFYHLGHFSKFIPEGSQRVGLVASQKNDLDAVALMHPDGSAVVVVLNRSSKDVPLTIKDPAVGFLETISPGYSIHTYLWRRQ

[3] = biological target: Acyl-homoserine lactone acylase PvdQ (Pseudomonas aeruginosa (strain LESB58), UniProt Q9I194); test: P. aeruginosa PvdQ acylase inhibitors, dose response, biochemical, fluorescence, plate reader and imaging, cherry-picks (AID 493231)
Sequence of Acyl-homoserine lactone acylase PvdQ (Q9I194 24-193 limits assumed): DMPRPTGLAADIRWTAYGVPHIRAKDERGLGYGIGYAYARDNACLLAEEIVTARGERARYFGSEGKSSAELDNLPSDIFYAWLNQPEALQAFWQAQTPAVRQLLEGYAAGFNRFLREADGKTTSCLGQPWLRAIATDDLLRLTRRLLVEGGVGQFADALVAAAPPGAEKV
Sequence of Acyl-homoserine lactone acylase PvdQ (Q9I194 217-762 limits assumed): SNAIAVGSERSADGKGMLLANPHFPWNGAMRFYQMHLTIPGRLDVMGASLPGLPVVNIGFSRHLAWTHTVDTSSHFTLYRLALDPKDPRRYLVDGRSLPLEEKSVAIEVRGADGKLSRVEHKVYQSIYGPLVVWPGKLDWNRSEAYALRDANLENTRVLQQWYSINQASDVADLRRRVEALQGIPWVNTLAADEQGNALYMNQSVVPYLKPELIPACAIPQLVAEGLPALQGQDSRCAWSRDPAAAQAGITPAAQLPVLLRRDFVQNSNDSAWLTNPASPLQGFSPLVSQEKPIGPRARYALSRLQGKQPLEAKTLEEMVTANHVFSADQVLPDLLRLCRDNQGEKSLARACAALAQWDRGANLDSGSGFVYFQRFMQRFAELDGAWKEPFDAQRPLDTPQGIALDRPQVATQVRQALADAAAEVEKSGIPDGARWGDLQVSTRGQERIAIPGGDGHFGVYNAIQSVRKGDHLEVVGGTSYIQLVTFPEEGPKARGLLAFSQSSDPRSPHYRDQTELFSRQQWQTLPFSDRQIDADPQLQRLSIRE

[4] = biological target: T2, RNA-binding protein pos-1 (Caenorhabditis elegans, UniProt G5EF15); test: inhibitors of POS-1/mex-3 RNA binding, dose response, biochemical, fluorescence polarization (AID 1964);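 also: purified POS-1 fused to maltose binding protein made in E. coli; potency of compounds blocking POS-1 binding to fluorescent RNA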
T2 sequence (G5EF15 whole entry): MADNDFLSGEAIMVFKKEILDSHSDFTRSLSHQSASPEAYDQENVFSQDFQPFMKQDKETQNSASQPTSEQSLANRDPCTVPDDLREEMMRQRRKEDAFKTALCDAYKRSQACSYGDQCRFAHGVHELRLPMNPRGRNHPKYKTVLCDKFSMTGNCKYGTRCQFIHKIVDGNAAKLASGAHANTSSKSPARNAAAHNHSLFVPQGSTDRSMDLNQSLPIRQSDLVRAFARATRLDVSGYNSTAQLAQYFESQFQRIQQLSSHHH

[5] = biological target: T3, Zinc finger protein mex-5 (Caenorhabditis elegans, UniProt Q9XUB2); test: MEX-5/TCR-2 RNA interaction inhibitors, dose response, biochemical, C. elegans, fluorescence polarization (AID 1960)
T3 sequence (Q9XUB2 whole entry): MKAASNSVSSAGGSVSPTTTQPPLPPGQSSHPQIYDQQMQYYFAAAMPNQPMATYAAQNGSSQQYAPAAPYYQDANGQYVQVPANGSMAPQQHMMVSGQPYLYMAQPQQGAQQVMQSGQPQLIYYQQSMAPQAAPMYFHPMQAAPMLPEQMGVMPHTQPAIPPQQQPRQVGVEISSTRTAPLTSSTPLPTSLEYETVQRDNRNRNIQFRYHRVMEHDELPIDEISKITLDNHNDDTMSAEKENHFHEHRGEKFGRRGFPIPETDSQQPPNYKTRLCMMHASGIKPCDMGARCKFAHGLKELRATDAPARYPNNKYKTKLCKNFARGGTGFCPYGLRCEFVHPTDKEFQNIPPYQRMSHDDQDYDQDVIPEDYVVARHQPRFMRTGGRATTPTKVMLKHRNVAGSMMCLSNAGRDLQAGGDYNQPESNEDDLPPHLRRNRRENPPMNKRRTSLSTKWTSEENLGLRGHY

[6] = biological target: Glucose-6-phosphate 1-dehydrogenase (Homo sapiens, UniProt P11413); test: human G6PD enzyme inhibitors, dose response, selectivity assay for P. falciparum G6PD inhibitor project, biochemical, fluorescence (AID 504792); type: functional
Sequence of Glucose-6-phosphate 1-dehydrogenase (P11413 whole entry): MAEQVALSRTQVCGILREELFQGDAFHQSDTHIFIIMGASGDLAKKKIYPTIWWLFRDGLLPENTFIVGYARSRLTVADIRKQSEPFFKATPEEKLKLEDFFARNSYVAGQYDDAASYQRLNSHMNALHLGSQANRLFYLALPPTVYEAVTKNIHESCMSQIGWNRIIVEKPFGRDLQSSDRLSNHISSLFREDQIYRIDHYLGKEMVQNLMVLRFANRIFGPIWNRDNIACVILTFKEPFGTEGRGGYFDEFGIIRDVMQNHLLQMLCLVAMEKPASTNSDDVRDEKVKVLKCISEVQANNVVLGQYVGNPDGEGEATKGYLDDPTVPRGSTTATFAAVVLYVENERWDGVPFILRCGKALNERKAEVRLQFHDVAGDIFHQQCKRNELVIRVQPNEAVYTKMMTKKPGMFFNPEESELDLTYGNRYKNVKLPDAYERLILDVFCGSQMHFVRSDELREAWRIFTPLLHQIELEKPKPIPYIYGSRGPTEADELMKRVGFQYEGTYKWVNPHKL

Hexokinase HKDC1 = biological target: T4, Hexokinase HKDC1 (Homo sapiens, UniProt Q2TB90); test: HKDC1 hexokinase inhibitors, dose response, biochemical, W721R variant (AID 504729); type: functional
T4 sequence (Q2TB90 whole entry): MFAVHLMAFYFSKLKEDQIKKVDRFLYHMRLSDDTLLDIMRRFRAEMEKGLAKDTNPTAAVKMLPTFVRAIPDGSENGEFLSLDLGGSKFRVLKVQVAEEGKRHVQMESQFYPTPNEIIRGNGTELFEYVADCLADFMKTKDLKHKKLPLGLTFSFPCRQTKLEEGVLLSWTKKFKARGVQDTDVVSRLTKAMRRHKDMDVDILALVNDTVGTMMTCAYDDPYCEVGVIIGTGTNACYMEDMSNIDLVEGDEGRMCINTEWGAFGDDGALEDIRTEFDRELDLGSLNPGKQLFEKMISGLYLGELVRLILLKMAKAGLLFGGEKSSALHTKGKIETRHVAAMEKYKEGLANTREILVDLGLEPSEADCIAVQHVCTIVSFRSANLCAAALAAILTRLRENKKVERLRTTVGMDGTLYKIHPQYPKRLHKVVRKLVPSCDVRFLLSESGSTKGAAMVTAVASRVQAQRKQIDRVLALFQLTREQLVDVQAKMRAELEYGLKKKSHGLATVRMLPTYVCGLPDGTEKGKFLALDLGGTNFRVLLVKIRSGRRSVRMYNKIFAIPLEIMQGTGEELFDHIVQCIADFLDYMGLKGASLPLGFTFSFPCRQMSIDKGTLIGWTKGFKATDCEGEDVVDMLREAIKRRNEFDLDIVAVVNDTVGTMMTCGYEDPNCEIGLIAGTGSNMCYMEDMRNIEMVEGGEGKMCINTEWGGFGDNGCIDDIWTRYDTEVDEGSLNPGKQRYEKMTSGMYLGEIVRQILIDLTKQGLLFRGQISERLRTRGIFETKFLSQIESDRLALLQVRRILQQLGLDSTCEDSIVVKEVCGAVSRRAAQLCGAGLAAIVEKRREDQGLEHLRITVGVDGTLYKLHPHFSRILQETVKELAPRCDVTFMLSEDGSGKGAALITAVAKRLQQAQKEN

[7] = biological target: T5, Polyadenylate-binding protein 1 (Homo sapiens, UniProt P11940); test: PABP1 MLLE–PAM2 interaction inhibitors, dose response, miRNA deadenylation inhibitor project, biochemical, fluorescence polarization, Cy5-PAM2 peptide, secondary (AID 602260); type: functional; conditions: read-out: IC50_Mean
T5 sequence (P11940 whole entry): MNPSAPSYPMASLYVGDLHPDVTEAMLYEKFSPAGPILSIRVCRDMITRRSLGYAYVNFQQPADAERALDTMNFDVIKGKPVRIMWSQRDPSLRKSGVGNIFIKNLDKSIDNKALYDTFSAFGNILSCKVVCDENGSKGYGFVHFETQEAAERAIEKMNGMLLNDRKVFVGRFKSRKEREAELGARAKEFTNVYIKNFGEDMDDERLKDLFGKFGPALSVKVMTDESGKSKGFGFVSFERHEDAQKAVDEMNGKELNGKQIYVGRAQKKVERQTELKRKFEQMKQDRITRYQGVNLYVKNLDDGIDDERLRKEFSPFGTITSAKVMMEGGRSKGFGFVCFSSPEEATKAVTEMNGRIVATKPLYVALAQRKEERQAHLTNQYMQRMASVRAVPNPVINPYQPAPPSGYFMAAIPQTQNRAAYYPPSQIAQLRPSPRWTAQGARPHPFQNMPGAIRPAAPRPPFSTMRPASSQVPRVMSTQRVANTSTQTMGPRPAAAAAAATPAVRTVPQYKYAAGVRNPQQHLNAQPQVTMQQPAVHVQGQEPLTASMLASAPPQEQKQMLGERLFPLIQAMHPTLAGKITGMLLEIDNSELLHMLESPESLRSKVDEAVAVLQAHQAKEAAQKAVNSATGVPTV

[8] = biological target: T5, Polyadenylate-binding protein 1; test: PABP1 MLLE–PAM2 binding inhibitor potency, dose response, biochemical, fluorescence polarization, FITC-PAM2 peptide (AID 602259); type: functional; conditions: read-out: IC50_Mean

Sequence of NS3 (A3EZJ3 whole entry): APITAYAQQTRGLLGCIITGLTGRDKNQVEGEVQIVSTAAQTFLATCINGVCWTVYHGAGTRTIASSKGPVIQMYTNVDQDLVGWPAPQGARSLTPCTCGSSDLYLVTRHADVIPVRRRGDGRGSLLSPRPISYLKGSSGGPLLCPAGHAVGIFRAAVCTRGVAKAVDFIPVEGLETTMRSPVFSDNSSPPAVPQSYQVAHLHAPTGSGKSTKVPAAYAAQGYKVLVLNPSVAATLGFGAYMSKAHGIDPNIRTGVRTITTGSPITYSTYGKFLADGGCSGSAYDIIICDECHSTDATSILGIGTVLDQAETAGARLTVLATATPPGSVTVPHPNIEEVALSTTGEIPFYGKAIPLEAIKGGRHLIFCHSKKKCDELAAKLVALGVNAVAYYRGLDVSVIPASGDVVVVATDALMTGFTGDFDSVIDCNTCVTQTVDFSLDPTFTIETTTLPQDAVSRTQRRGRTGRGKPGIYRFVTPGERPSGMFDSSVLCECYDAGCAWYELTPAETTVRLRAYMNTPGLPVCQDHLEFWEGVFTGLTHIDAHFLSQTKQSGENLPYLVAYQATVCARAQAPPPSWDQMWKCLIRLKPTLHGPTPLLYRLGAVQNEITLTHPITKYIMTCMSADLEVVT

SMILES: Cc1occc1C(=O)NNC(=S)NC(=O)COc1ccc(Cl)cc1Cl
- IC50 (NS3): 15.2 µM (not active)
- EC50 [1]: 5.96 µM (active)

SMILES: C=CCSC1=N/C(=C\c2ccsc2)C(=O)S1
- EC50 [2]: > 50 µM (not active)

SMILES: N#CC(c1ccc(Cl)cc1)c1ccc(Cl)nn1 (stereo not given)
- AC50 [3]: 0.991 µM (active)

SMILES: CN(C)Cc1cc(O)c(CN(C)C)cc1O
- EC50 [4]: 22.3 µM (inconclusive)
- EC50 [5]: 5.82 µM (active)
- IC50 [6]: 34.7 µM (inactive)
- IC50 (Hexokinase HKDC1): 49.6 µM (inactive)
- IC50 [7]: > 66 µM (inactive)
- IC50 [8]: 50.7 µM (inactive)
